pIC50: −log10 of the molar value.
Target: T1, human TLR7 (Homo sapiens, UniProt Q9NYK1)
T1 sequence (Q9NYK1 27-1049): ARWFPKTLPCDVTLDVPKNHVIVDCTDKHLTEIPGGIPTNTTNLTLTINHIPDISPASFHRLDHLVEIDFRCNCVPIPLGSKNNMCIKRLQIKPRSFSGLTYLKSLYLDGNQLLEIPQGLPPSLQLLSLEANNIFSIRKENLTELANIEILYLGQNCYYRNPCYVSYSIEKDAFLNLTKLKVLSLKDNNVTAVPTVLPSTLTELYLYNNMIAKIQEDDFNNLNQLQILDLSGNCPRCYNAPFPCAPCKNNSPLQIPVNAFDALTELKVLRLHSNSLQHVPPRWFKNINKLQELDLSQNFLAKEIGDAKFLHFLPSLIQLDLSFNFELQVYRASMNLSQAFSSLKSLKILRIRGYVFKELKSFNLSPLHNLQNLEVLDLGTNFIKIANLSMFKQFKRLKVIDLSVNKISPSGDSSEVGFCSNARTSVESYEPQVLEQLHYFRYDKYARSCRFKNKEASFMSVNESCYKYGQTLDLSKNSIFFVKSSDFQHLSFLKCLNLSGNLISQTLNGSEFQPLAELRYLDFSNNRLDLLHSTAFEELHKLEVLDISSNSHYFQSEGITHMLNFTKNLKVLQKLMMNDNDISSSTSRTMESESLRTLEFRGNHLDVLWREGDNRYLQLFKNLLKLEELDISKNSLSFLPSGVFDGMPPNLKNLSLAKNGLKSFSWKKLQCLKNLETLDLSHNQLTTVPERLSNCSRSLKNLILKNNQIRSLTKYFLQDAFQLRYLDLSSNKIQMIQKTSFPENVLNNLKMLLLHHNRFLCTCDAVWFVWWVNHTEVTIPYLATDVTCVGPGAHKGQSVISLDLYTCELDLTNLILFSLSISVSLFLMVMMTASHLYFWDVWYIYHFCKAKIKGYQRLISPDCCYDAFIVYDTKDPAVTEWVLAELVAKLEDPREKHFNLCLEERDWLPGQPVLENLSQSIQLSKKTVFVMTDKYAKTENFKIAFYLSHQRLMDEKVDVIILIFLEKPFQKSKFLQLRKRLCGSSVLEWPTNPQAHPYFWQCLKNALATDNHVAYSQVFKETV
Test: HEK293-Blue-hTLR-7 cells assay (SEAP reporter, R848 stimulation)
Type: cell-based
Conditions: HEK293-Blue-hTLR7 cells, R848 ligand, 20 hrs incubation
Description: A stable HEK293-Blue-hTLR-7 cell line was purchased from InvivoGen (Cat. #: hkb-htlr7, San Diego, Calif., USA). These cells were originally designed for studying the stimulation of human TLR7 by monitoring the activation of NF-κB. A SEAP (secreted embryonic alkaline phosphatase) reporter gene was placed under the control of the IFN-β minimal promoter fused to five NF-κB and AP-1-binding sites. The SEAP was induced by activating NF-κB and AP-1 via stimulating HEK-Blue hTLR7 cells with TLR7 ligands. Therefore the reporter expression was declined by TLR7 antagonist under the stimulation of a ligand, such as R848 (Resiquimod), for incubation of 20 hrs. The cell culture supernatant SEAP reporter activity was determined using QUANTI-Blue™ kit (Cat. #: rep-qb1, Invivogen, San Diego, Ca, USA) at a wavelength of 640 nm, a detection medium that turns purple or blue in the presence of alkaline phosphatase.
HEK293-Blue-hTLR7 cells were incubated at a density of 250,000˜450,000 cells/mL in a volume of 170 μL in a 96-well plate in Dulbecco's Modified Eagle's medium (DMEM) containing 4.5 g/L glucose, 50 U/mL penicillin, […], […], 2 mM L-glutamine, 10% (v/v) heat-inactivated fetal bovine serum with addition of 20 μL test compound in a serial dilution in the presence of final DMSO at 1% and 10 μL of 20 uM R848 in above DMEM, perform incubation under 37° C. in a CO2 incubator for 20 hrs. Then 20 μL of the supernatant from each well was incubated with 180 μL Quanti-blue substrate solution at 37° C. for 2 hrs and the absorbance was read at 620˜655 nm using a spectrophotometer. The signalling pathway that TLR7 activation leads to downstream NF-κB activation has been widely accepted, and therefore similar reporter assay was modified for evaluating TLR7 antagonist.

pIC50 | SMILES
6.64 | C[C@@H]1CN(c2ccc(C#N)n3ncc(F)c23)C[C@H](CN2CCCC3(CCNC3)C2)O1 (stereo partly drawn) [Example 68, 3-fluoro-4-[(2S,6R)-2-(2,7-diazaspiro[4.5]decan-7-ylmethyl)-6-methyl-morpholin-4-yl]pyrazolo[1,5-a]pyridine-7-carbonitrile]
6.74 | C[C@@H]1CN(c2ccc(C#N)n3nccc23)C[C@H](CN2CC3CCNCC3C2)O1 (stereo partly drawn) [Example 49, 4-[(2S,6R)-2-(1,3,3a,4,5,6,7,7a-octahydropyrrolo[3,4-c]pyridin-2-ylmethyl)-6-methyl-morpholin-4-yl]pyrazolo[1,5-a]pyridine-7-carbonitrile]
6.64 | CC1CNCCN1C[C@H]1CN(c2ccc(C#N)n3nccc23)C[C@@H](C)O1 (single isomer, unassigned) [Example 50A]
6.64 | C[C@@H]1CN(c2ccc(C#N)n3nccc23)C[C@H](CN2CCC3NCC3C2)O1 (stereo partly drawn) [Example 70, 4-[(2S,6R)-2-(3,7-diazabicyclo[4.2.0]octan-3-ylmethyl)-6-methyl-morpholin-4-yl]pyrazolo[1,5-a]pyridine-7-carbonitrile]
7.04 | C[C@@H]1CN(c2ccc(C#N)n3nccc23)C[C@H](CN2CC3CNCCC32)O1 (stereo partly drawn) [Example 52, 4-[(2S,6R)-2-(3,7-diazabicyclo[4.2.0]octan-7-ylmethyl)-6-methyl-morpholin-4-yl]pyrazolo[1,5-a]pyridine-7-carbonitrile]
7.00 | C[C@@H]1CN(c2ccc(C#N)n3nccc23)C[C@H](CN2CCC3(CC2)CNCCO3)O1 [Example 60, 4-[(2R,6S)-2-methyl-6-(1-oxa-4,9-diazaspiro[5.5]undecan-9-ylmethyl)morpholin-4-yl]pyrazolo[1,5-a]pyridine-7-carbonitrile]
6.60 | C[C@@H]1CN(c2ccc(C#N)n3nccc23)C[C@H](CN2CCCC3NCCCC32)O1 (stereo partly drawn) [Example 64, 4-[(2S,6R)-2-(3,4,4a,5,6,7,8,8a-octahydro-2H-1,5-naphthyridin-1-ylmethyl)-6-methyl-morpholin-4-yl]pyrazolo[1,5-a]pyridine-7-carbonitrile]
6.89 | C[C@@H]1CN(c2ccc(C#N)n3ncc(F)c23)C[C@H](CN2CCC3(CCCNC3)C2)O1 (stereo partly drawn) [Example 69, 3-fluoro-4-[(2S,6R)-2-(2,9-diazaspiro[4.5]decan-2-ylmethyl)-6-methyl-morpholin-4-yl]pyrazolo[1,5-a]pyridine-7-carbonitrile]
6.57 | C[C@@H]1CN(c2ccc(C#N)n3nccc23)C[C@H](CN2CCC[C@@H]3NCCC32)O1 (stereo partly drawn) [Example 63, 4-[(2R,6S)-2-methyl-6-[[cis-(3aS,7aS)-1,2,3,3a,5,6,7,7a-octahydropyrrolo[3,2-b]pyridin-4-yl]methyl]morpholin-4-yl]pyrazolo[1,5-a]pyridine-7-carbonitrile]

The next lines start with the molecule.

SMILES | pIC50
C[C@@H]1CN(c2ccc(C#N)n3nccc23)C[C@H](CN2CC(N)C(F)(F)C2)O1 (stereo partly drawn) [Example 35, 4-[(2S,6R)-2-[(4-amino-3,3-difluoro-pyrrolidin-1-yl)methyl]-6-methyl-morpholin-4-yl]pyrazolo[1,5-a]pyridine-7-carbonitrile] | 6.08
C[C@@H]1CN(c2ccc(C#N)n3nccc23)C[C@H](CN2CCC3(CCNCC3)CC2)O1 [Example 3, 4-[(2S,6R)-2-(3,9-diazaspiro[5.5]undecan-3-ylmethyl)-6-methyl-morpholin-4-yl]pyrazolo[1,5-a]pyridine-7-carbonitrile] | 6.62
C[C@@H]1CN(c2ccc(C#N)n3nccc23)C[C@H](CN2CCC3(CCNC3)CC2)O1 [Example 19, 4-[(2S,6R)-2-(2,8-diazaspiro[4.5]decan-8-ylmethyl)-6-methyl-morpholin-4-yl]pyrazolo[1,5-a]pyridine-7-carbonitrile] | 6.89
C[C@@H]1CN(c2ccc(C#N)n3nccc23)C[C@H](CN2C3CCC2CC(N)C3)O1 (stereo partly drawn) [Example 37, 4-[(2S,6R)-2-[(3-amino-8-azabicyclo[3.2.1]octan-8-yl)methyl]-6-methyl-morpholin-4-yl]pyrazolo[1,5-a]pyridine-7-carbonitrile] | 6.72
C[C@@H]1CN(c2ccc(C#N)n3nccc23)C[C@H](CN2CCN[C@H](c3ccccc3)C2)O1 [Example 38, 4-[(2R,6S)-2-methyl-6-[[(3R)-3-phenylpiperazin-1-yl]methyl]morpholin-4-yl]pyrazolo[1,5-a]pyridine-7-carbonitrile] | 6.92
C[C@@H]1CN(c2ccc(C#N)n3nccc23)C[C@H](CN2CC3CNCC3C2)O1 (stereo partly drawn) [Example 22, 4-[(2S,6R)-2-(2,3,3a,4,6,6a-hexahydro-1H-pyrrolo[3,4-c]pyrrol-5-ylmethyl)-6-methyl-morpholin-4-yl]pyrazolo[1,5-a]pyridine-7-carbonitrile] | 7.00
C[C@@H]1CN(c2ccc(C#N)n3nccc23)C[C@H](CN2CCC3(CCCNC3)CC2)O1 [Example 27, 4-[(2S,6R)-2-(2,9-diazaspiro[5.5]undecan-9-ylmethyl)-6-methyl-morpholin-4-yl]pyrazolo[1,5-a]pyridine-7-carbonitrile] | 6.89
C[C@@H]1CN(c2ccc(C#N)n3nccc23)C[C@H](CN2CCN(C)CC2)O1 [Example 15, 4-[(2R,6S)-2-methyl-6-[(4-methylpiperazin-1-yl)methyl]morpholin-4-yl]pyrazolo[1,5-a]pyridine-7-carbonitrile] | 7.11
C[C@@H]1CN(c2ccc(C#N)n3nccc23)C[C@H](CN2CCCC3(CCCNC3)C2)O1 (stereo partly drawn) [Example 23, 4-[(2S,6R)-2-(2,8-diazaspiro[5.5]undecan-2-ylmethyl)-6-methyl-morpholin-4-yl]pyrazolo[1,5-a]pyridine-7-carbonitrile] | 6.74
C[C@@H]1CN(c2ccc(C#N)n3nccc23)C[C@H](CN2CCC(CCN)CC2)O1 [Example 13, 4-[(2S,6R)-2-[[4-(2-aminoethyl)-1-piperidyl]methyl]-6-methyl-morpholin-4-yl]pyrazolo[1,5-a]pyridine-7-carbonitrile] | 6.40
C[C@@H]1CN(c2ccc(C#N)n3nccc23)C[C@H](CN2CC3CCC(C2)N3)O1 [Example 31, 4-[(2S,6R)-2-(3,8-diazabicyclo[3.2.1]octan-3-ylmethyl)-6-methyl-morpholin-4-yl]pyrazolo[1,5-a]pyridine-7-carbonitrile] | 7.28
C[C@@H]1CN(c2ccc(C#N)n3nccc23)C[C@H](CN2CCC3(CCCNC3)C2)O1 (stereo partly drawn) [Example 25, 4-[(2S,6R)-2-(2,9-diazaspiro[4.5]decan-2-ylmethyl)-6-methyl-morpholin-4-yl]pyrazolo[1,5-a]pyridine-7-carbonitrile] | 6.96
C[C@@H]1CN(c2ccc(C#N)n3nccc23)C[C@H](CN2CCC(C)(N)CC2)O1 [Example 29, 4-[(2S,6R)-2-[(4-amino-4-methyl-1-piperidyl)methyl]-6-methyl-morpholin-4-yl]pyrazolo[1,5-a]pyridine-7-carbonitrile] | 7.12
C[C@@H]1CN(c2ccc(C#N)n3nccc23)C[C@H](CN2CCNCC2)O1 [Example 5, 4-[(2R,6S)-2-methyl-6-(piperazin-1-ylmethyl)morpholin-4-yl]pyrazolo[1,5-a]pyridine-7-carbonitrile] | 7.27
C[C@@H]1CN(c2ccc(C#N)n3nccc23)C[C@H](CN2CC3CCC(C2)C3N)O1 (stereo partly drawn) [Example 36, 4-[(2S,6R)-2-[(8-amino-3-azabicyclo[3.2.1]octan-3-yl)methyl]-6-methyl-morpholin-4-yl]pyrazolo[1,5-a]pyridine-7-carbonitrile] | 7.42
